From PubChem BioAssay AID328 (DTP/NCI, 2004)
Values joined by “and” are separate entries in the source; they are usually repeats but may differ in a detail not shown here. Identical values can stand only once. Inconclusive results and toxic doses are left out.

System: BDF1 mice, P388 leukemia ip, median survival T/C
Experiment: NCI In Vivo Anticancer Drug Screen. Data for tumor model P388 Leukemia (intraperitoneal) in B6D2F1 (BDF1) mice
Details: endpoint: median survival time, higher = longer survival
Outline: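 Antitumour effect was judged in vivo: survival in drug-treated mice, normalised to that of vehicle-dosed controls, gives the reported T/C.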

[1] = dose: 25.0 mg/kg/injection, schedule: Q01DX009 (ip), vehicle: Klucel (hydroxypropylcellulose) (HPC)
[2] = dose: 50.0 mg/kg/injection, schedule: Q01DX009 (ip), vehicle: Klucel (hydroxypropylcellulose) (HPC)
[3] = dose: 100.0 mg/kg/injection, schedule: Q01DX009 (ip), vehicle: Klucel (hydroxypropylcellulose) (HPC)
[4] = dose: 100.0 mg/kg/injection, schedule: Q04DX003 (ip), vehicle: saline
[5] = dose: 200.0 mg/kg/injection, schedule: Q01DX009 (ip), vehicle: Klucel (hydroxypropylcellulose) (HPC)
[6] = dose: 200.0 mg/kg/injection, schedule: Q04DX003 (ip), vehicle: saline
[7] = dose: 50.0 mg/kg/injection, schedule: Q01DX009 (ip), vehicle: saline with Tween-80
[8] = dose: 100.0 mg/kg/injection, schedule: Q01DX009 (ip), vehicle: saline with Tween-80
[9] = dose: 200.0 mg/kg/injection, schedule: Q01DX009 (ip), vehicle: saline with Tween-80
[10] = dose: 400.0 mg/kg/injection, schedule: Q04DX003 (ip), vehicle: saline
[11] = dose: 6.25 mg/kg/injection, schedule: Q01DX009 (ip), vehicle: saline with Tween-80

For `CCN1CCCC(Nc2nc(Nc3cc(Cl)cc(Cl)c3)nc3cc(Cl)ccc23)C1` (stereo not drawn), the T/C (dose: 37.5 mg/kg/injection, schedule: Q01DX001 (ip), vehicle: saline sonified) was 120 % of control, the T/C (dose: 75.0 mg/kg/injection, schedule: Q01DX001 (ip), vehicle: saline sonified) was 115 % of control and the T/C (dose: 150.0 mg/kg/injection, schedule: Q01DX001 (ip), vehicle: saline sonified) was 120 % of control.
`c1cc[c]([Sn]([c]2ccccc2)([c]2ccccc2)[n]2cnc3ccccc32)cc1` was tested, and the T/C (dose: 0.1 mg/kg/injection, schedule: Q01DX009 (ip), vehicle: Klucel (hydroxypropylcellulose) (HPC)) was 90 % of control, the T/C (dose: 0.21 mg/kg/injection, schedule: Q01DX009 (ip), vehicle: Klucel (hydroxypropylcellulose) (HPC)) was 90 % of control and the T/C (dose: 0.43 mg/kg/injection, schedule: Q01DX009 (ip), vehicle: Klucel (hydroxypropylcellulose) (HPC)) was 90 % of control. For the same compound, the T/C (dose: 0.87 mg/kg/injection, schedule: Q01DX009 (ip), vehicle: Klucel (hydroxypropylcellulose) (HPC)) was 90 % of control, the T/C (dose: 7.0 mg/kg/injection, schedule: Q01DX009 (ip), vehicle: Klucel (hydroxypropylcellulose) (HPC)) was 115 % of control and the T/C (dose: 18.0 mg/kg/injection, schedule: Q04DX003 (ip), vehicle: Klucel (hydroxypropylcellulose) (HPC)) was 100 % of control. The T/C (dose: 28.0 mg/kg/injection, schedule: Q04DX003 (ip), vehicle: Klucel (hydroxypropylcellulose) (HPC)) was 86 % of control.
In the case of `O=C1OC(=O)C2C1C1C3C=CC3C1C21C=C1` (stereo not drawn), the T/C (dose: 85.0 mg/kg/injection, schedule: Q04DX003 (ip), vehicle: Klucel (hydroxypropylcellulose) (HPC)) is reported as 95 % of control, the T/C (dose: 100.0 mg/kg/injection, schedule: Q01DX001 (ip), vehicle: saline) is reported as 113 % of control and 116 % of control and the T/C (dose: 135.0 mg/kg/injection, schedule: Q04DX003 (ip), vehicle: Klucel (hydroxypropylcellulose) (HPC)) is reported as 104 % of control. For the same compound, the T/C (dose: 200.0 mg/kg/injection, schedule: Q01DX001 (ip), vehicle: saline) was 113 % of control, the T/C (dose: 200.0 mg/kg/injection, schedule: Q04DX003 (ip), vehicle: Klucel (hydroxypropylcellulose) (HPC)) was 113 % of control and the T/C (dose: 300.0 mg/kg/injection, schedule: Q04DX003 (ip), vehicle: Klucel (hydroxypropylcellulose) (HPC)) was 118 % of control. For the same compound, the T/C (dose: 400.0 mg/kg/injection, schedule: Q01DX001 (ip), vehicle: saline) was 100 % of control and 104 % of control.
In the case of `COc1cc(/C=C(/C)[N+](=O)[O-])ccc1O`, the T/C (dose: 12.5 mg/kg/injection, schedule: Q01DX009 (ip), vehicle: carboxymethylcellulose (CMC)) is reported as 118 % of control, the T/C (dose: 18.75 mg/kg/injection, schedule: Q01DX009 (ip), vehicle: Klucel (hydroxypropylcellulose) (HPC)) is reported as 121 % of control and the T/C [1] is reported as 103 % of control and 112 % of control. The T/C [2] was 116 % of control, the T/C (dose: 50.0 mg/kg/injection, schedule: Q01DX009 (ip), vehicle: saline) was 122 % of control and the T/C (dose: 50.0 mg/kg/injection, schedule: Q04DX003 (ip), vehicle: saline) was 109 % of control. The T/C [3] was 114 % of control, the T/C (dose: 100.0 mg/kg/injection, schedule: Q01DX009 (ip), vehicle: saline) was 92 % of control and the T/C [4] was 113 % of control. The T/C [5] was 114 % of control, the T/C (dose: 200.0 mg/kg/injection, schedule: Q01DX009 (ip), vehicle: saline) was 122 % of control and the T/C [6] was 118 % of control.
With `C/C=C/C=N/NC(=S)NC` the T/C (dose: 6.75 mg/kg/injection, schedule: Q01DX009 (ip), vehicle: saline with Tween-80) was 109 % of control, the T/C (dose: 13.5 mg/kg/injection, schedule: Q01DX009 (ip), vehicle: saline with Tween-80) was 91 % of control and the T/C (dose: 27.0 mg/kg/injection, schedule: Q01DX009 (ip), vehicle: saline with Tween-80) was 86 % of control.
In the case of `CCC(=O)/C=C/c1ccc(Cl)cc1`, the T/C [7] is reported as 110 % of control, the T/C [8] is reported as 109 % of control and the T/C [9] is reported as 107 % of control.
For `CC1(C)S[C@@H]2[C@H](NC(=O)CCC[C@@H](N)C(=O)O)C(=O)N2[C@H]1C(=O)O`, the T/C (dose: 23.0 mg/kg/injection, schedule: Q01DX009 (ip), vehicle: saline) was 99 % of control, the T/C (dose: 47.0 mg/kg/injection, schedule: Q01DX009 (ip), vehicle: saline) was 106 % of control and the T/C (dose: 94.0 mg/kg/injection, schedule: Q01DX009 (ip), vehicle: saline) was 107 % of control and 117 % of control and 120 % of control. The T/C (dose: 188.0 mg/kg/injection, schedule: Q01DX009 (ip), vehicle: saline) was 102 % of control and 104 % of control and 106 % of control and the T/C (dose: 750.0 mg/kg/injection, schedule: Q01DX009 (ip), vehicle: saline) was 95 % of control and 102 % of control.
With `[O-][n+]1c(-c2ccccc2)c(C(O)c2ccccc2)nc2ccccc21` (stereo not drawn) the T/C (dose: 100.0 mg/kg/injection, schedule: Q01DX001 (ip), vehicle: saline with Tween-80) was 105 % of control, the T/C (dose: 200.0 mg/kg/injection, schedule: Q01DX001 (ip), vehicle: saline with Tween-80) was 94 % of control and the T/C (dose: 400.0 mg/kg/injection, schedule: Q01DX001 (ip), vehicle: saline with Tween-80) was 96 % of control.
For `CC(C)C1C(C)N1C(C)C` (stereo not drawn), the T/C [1] was 100 % of control, the T/C (dose: 25.0 mg/kg/injection, schedule: Q04DX003 (ip), vehicle: Klucel (hydroxypropylcellulose) (HPC)) was 100 % of control and the T/C [2] was 100 % of control. The T/C (dose: 50.0 mg/kg/injection, schedule: Q04DX003 (ip), vehicle: Klucel (hydroxypropylcellulose) (HPC)) was 100 % of control, the T/C [3] was 95 % of control and the T/C (dose: 100.0 mg/kg/injection, schedule: Q04DX003 (ip), vehicle: Klucel (hydroxypropylcellulose) (HPC)) was 104 % of control.
For `NNCCC(=O)O`, the T/C [4] was 91 % of control, the T/C [6] was 112 % of control and the T/C (dose: 264.0 mg/kg/injection, schedule: Q04DX003 (ip), vehicle: saline) was 113 % of control. The T/C [10] was 118 % of control and 123 % of control.
For `CN(C)/N=N/c1nc[nH]c1C(N)=O`, the T/C (dose: 25.0 mg/kg/injection, schedule: Q01DX010 (ip), vehicle: saline) was 116 % of control, the T/C [2] was 100 % of control and 108 % of control and 123 % of control and the T/C (dose: 50.0 mg/kg/injection, schedule: Q01DX010 (ip), vehicle: saline) was 100 % of control. The T/C [3] was 92 % of control and 97 % of control and 100 % of control, the T/C [5] was 100 % of control (2×) and 115 % of control and the T/C (dose: 208.0 mg/kg/injection, schedule: Q01DX001 (ip), vehicle: carboxymethylcellulose (CMC)) was 109 % of control. The T/C (dose: 275.0 mg/kg/injection, schedule: Q01DX001 (ip), vehicle: carboxymethylcellulose (CMC)) was 110 % of control and 116 % of control, the T/C (dose: 400.0 mg/kg/injection, schedule: Q01DX009 (ip), vehicle: Klucel (hydroxypropylcellulose) (HPC)) was 115 % of control and 122 % of control and 123 % of control and the T/C (dose: 418.0 mg/kg/injection, schedule: Q01DX001 (ip), vehicle: carboxymethylcellulose (CMC)) was 119 % of control. For the same compound, the T/C (dose: 775.0 mg/kg/injection, schedule: Q01DX001 (ip), vehicle: carboxymethylcellulose (CMC)) was 158 % of control.
In the case of `N=c1ccn2c(n1)OC1C(OP(=O)(O)O)C(CO)OC12` (stereo not drawn), the T/C (dose: 52.0 mg/kg/injection, schedule: Q04DX003 (ip), vehicle: saline) is reported as 109 % of control, the T/C (dose: 118.0 mg/kg/injection, schedule: Q04DX003 (ip), vehicle: saline) is reported as 159 % of control and the T/C (dose: 177.0 mg/kg/injection, schedule: Q04DX003 (ip), vehicle: saline) is reported as 172 % of control and 185 % of control. For the same compound, the T/C (dose: 266.0 mg/kg/injection, schedule: Q04DX003 (ip), vehicle: saline with Tween-80) was 172 % of control, the T/C (dose: 266.0 mg/kg/injection, schedule: Q04DX003 (ip), vehicle: saline) was 205 % of control and the T/C (dose: 400.0 mg/kg/injection, schedule: Q04DX003 (ip), vehicle: saline with Tween-80) was 181 % of control. For the same compound, the T/C [10] was 200 % of control, the T/C (dose: 600.0 mg/kg/injection, schedule: Q04DX003 (ip), vehicle: saline with Tween-80) was 200 % of control and the T/C (dose: 600.0 mg/kg/injection, schedule: Q04DX003 (ip), vehicle: saline) was 230 % of control.
In the case of `C=C1C(=O)[C@]23C[C@H]1CC[C@H]2[C@@]12CO[C@@H](O)[C@@H]1C(C)(C)[C@@H](O)C[C@@H]2OC3=O`, the T/C (dose: 3.13 mg/kg/injection, schedule: Q01DX009 (ip), vehicle: saline with Tween-80) is reported as 112 % of control, the T/C [11] is reported as 118 % of control and the T/C (dose: 25.0 mg/kg/injection, schedule: Q01DX009 (ip), vehicle: saline with Tween-80) is reported as 117 % of control. The T/C [7] was 119 % of control and 121 % of control, the T/C [8] was 112 % of control and the T/C [9] was 120 % of control.
In the case of `CCCCCCc1nc2nc(Cl)c(Cl)nc2[nH]1`, the T/C (dose: 0.78 mg/kg/injection, schedule: Q01DX009 (ip), vehicle: saline with Tween-80) is reported as 100 % of control, the T/C (dose: 1.56 mg/kg/injection, schedule: Q01DX009 (ip), vehicle: saline with Tween-80) is reported as 89 % of control and the T/C (dose: 3.12 mg/kg/injection, schedule: Q01DX009 (ip), vehicle: saline with Tween-80) is reported as 92 % of control. The T/C [11] was 92 % of control and the T/C (dose: 12.5 mg/kg/injection, schedule: Q01DX009 (ip), vehicle: saline with Tween-80) was 95 % of control.
